Results taken from the kinase profiling compilation of Christmann-Franck et al. (2016).

These compounds were tested against NEK1 (human) (UniProt Q96PY6) (assay: radiometric filter-binding kinase assay, Kinase HotSpot). Settings: compound 0.5 µM; ATP 10 µM.

Row | SMILES | residual activity [%]
1 | O=C1Cc2c([nH]c3ccc([N+](=O)[O-])cc23)-c2ccccc2N1 | 105
2 | Oc1ccc(-c2nc(-c3ccc(F)cc3)c(-c3ccncc3)[nH]2)cc1 | 98.9
3 | Cc1ccc(NC(=O)c2ccc(CN3CCN(C)CC3)cc2)cc1Nc1nc(-c2cccnc2)cs1 | 116
4 | COc1ccc(-c2cnc3c(-c4ccsc4)cnn3c2)cc1 | 89.4

Each compound was assayed against PHKG2 (human) (UniProt P15735) in the same assay as above. Settings: compound 0.5 µM; ATP 10 µM.

Row | SMILES | residual activity [%]
5 | O=C1Cc2c([nH]c3ccc([N+](=O)[O-])cc23)-c2ccccc2N1 | 101
6 | Oc1ccc(-c2nc(-c3ccc(F)cc3)c(-c3ccncc3)[nH]2)cc1 | 94.3
7 | Cc1ccc(NC(=O)c2ccc(CN3CCN(C)CC3)cc2)cc1Nc1nc(-c2cccnc2)cs1 | 69.1
8 | COc1ccc(-c2cnc3c(-c4ccsc4)cnn3c2)cc1 | 92.3

Each compound was assayed against PTK6 (human) (UniProt Q13882) in the same assay as above. Settings: compound 0.5 µM; ATP 10 µM.

Row | SMILES | residual activity [%]
9 | O=C1Cc2c([nH]c3ccc([N+](=O)[O-])cc23)-c2ccccc2N1 | 92.7
10 | Oc1ccc(-c2nc(-c3ccc(F)cc3)c(-c3ccncc3)[nH]2)cc1 | 50.3
11 | Cc1ccc(NC(=O)c2ccc(CN3CCN(C)CC3)cc2)cc1Nc1nc(-c2cccnc2)cs1 | 79.2
12 | COc1ccc(-c2cnc3c(-c4ccsc4)cnn3c2)cc1 | 77.5

These compounds were tested against MAP3K11 (human) (UniProt Q16584) in the same assay as above. Settings: compound 0.5 µM; ATP 10 µM.
MAP3K11 (human), sequence (Q16584 whole entry, looked up): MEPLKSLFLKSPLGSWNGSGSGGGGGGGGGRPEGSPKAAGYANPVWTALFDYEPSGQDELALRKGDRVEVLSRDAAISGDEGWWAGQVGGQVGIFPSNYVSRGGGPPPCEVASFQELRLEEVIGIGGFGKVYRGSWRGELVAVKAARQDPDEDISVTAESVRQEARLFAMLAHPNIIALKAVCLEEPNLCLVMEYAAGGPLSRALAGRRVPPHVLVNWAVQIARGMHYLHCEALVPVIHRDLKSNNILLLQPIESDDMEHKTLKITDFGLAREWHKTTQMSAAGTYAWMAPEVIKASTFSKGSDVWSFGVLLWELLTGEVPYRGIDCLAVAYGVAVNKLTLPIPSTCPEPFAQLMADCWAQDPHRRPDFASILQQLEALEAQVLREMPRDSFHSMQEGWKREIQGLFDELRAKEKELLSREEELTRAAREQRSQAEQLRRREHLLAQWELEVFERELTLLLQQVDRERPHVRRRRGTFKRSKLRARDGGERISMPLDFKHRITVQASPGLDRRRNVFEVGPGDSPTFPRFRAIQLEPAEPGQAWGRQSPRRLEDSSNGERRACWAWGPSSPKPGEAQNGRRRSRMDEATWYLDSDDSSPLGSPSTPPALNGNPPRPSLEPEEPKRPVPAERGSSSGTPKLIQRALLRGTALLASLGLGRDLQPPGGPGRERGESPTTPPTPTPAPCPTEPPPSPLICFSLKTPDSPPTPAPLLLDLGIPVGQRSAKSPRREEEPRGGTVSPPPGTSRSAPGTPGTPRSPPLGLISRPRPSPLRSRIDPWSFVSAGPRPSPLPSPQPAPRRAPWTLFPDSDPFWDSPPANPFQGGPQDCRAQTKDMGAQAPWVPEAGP

Row | SMILES | residual activity [%]
13 | O=C1Cc2c([nH]c3ccc([N+](=O)[O-])cc23)-c2ccccc2N1 | 11.8
14 | Oc1ccc(-c2nc(-c3ccc(F)cc3)c(-c3ccncc3)[nH]2)cc1 | 25.2
15 | Cc1ccc(NC(=O)c2ccc(CN3CCN(C)CC3)cc2)cc1Nc1nc(-c2cccnc2)cs1 | 101
16 | COc1ccc(-c2cnc3c(-c4ccsc4)cnn3c2)cc1 | 51.9

These compounds were tested against MELK (human) (UniProt Q14680) in the same assay as above. Settings: compound 0.5 µM; ATP 10 µM.

Row | SMILES | residual activity [%]
17 | O=C1Cc2c([nH]c3ccc([N+](=O)[O-])cc23)-c2ccccc2N1 | 71.7
18 | Oc1ccc(-c2nc(-c3ccc(F)cc3)c(-c3ccncc3)[nH]2)cc1 | 102
19 | Cc1ccc(NC(=O)c2ccc(CN3CCN(C)CC3)cc2)cc1Nc1nc(-c2cccnc2)cs1 | 84.8
20 | COc1ccc(-c2cnc3c(-c4ccsc4)cnn3c2)cc1 | 73.6

Each compound was assayed against MATK (human) (UniProt P42679) in the same assay as above. Settings: compound 0.5 µM; ATP 10 µM.
MATK (human), sequence (P42679 whole entry, looked up): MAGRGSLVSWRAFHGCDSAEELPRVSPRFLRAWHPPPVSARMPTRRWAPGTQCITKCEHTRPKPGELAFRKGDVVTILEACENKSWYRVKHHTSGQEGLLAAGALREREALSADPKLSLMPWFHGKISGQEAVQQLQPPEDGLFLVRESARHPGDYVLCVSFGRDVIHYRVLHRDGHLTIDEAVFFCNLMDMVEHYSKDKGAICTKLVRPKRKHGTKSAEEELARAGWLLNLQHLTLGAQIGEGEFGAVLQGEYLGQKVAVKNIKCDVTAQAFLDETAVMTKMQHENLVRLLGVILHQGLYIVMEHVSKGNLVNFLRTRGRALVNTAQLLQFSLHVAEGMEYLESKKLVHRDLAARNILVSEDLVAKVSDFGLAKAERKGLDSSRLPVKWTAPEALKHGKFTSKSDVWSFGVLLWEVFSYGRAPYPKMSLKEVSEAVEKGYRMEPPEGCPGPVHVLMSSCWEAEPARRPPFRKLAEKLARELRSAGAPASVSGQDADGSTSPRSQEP

Row | SMILES | residual activity [%]
21 | O=C1Cc2c([nH]c3ccc([N+](=O)[O-])cc23)-c2ccccc2N1 | 98.9
22 | Oc1ccc(-c2nc(-c3ccc(F)cc3)c(-c3ccncc3)[nH]2)cc1 | 90.3
23 | Cc1ccc(NC(=O)c2ccc(CN3CCN(C)CC3)cc2)cc1Nc1nc(-c2cccnc2)cs1 | 85.9
24 | COc1ccc(-c2cnc3c(-c4ccsc4)cnn3c2)cc1 | 99.4

These compounds were tested against ERBB4 (human) (UniProt Q15303) in the same assay as above. Settings: compound 0.5 µM; ATP 10 µM.

Row | SMILES | residual activity [%]
25 | O=C1Cc2c([nH]c3ccc([N+](=O)[O-])cc23)-c2ccccc2N1 | 87.3
26 | Oc1ccc(-c2nc(-c3ccc(F)cc3)c(-c3ccncc3)[nH]2)cc1 | 83.1
27 | Cc1ccc(NC(=O)c2ccc(CN3CCN(C)CC3)cc2)cc1Nc1nc(-c2cccnc2)cs1 | 93.5
28 | COc1ccc(-c2cnc3c(-c4ccsc4)cnn3c2)cc1 | 94.2

These compounds were tested against MARK4 (human) (UniProt Q96L34) in the same assay as above. Settings: compound 0.5 µM; ATP 10 µM.

Row | SMILES | residual activity [%]
29 | O=C1Cc2c([nH]c3ccc([N+](=O)[O-])cc23)-c2ccccc2N1 | 55.4
30 | Oc1ccc(-c2nc(-c3ccc(F)cc3)c(-c3ccncc3)[nH]2)cc1 | 100
31 | Cc1ccc(NC(=O)c2ccc(CN3CCN(C)CC3)cc2)cc1Nc1nc(-c2cccnc2)cs1 | 101
32 | COc1ccc(-c2cnc3c(-c4ccsc4)cnn3c2)cc1 | 92.7

Each compound was assayed against CAMKK2 (human) (UniProt Q96RR4) in the same assay as above. Settings: compound 0.5 µM; ATP 10 µM.
CAMKK2 (human), sequence (Q96RR4 whole entry, looked up): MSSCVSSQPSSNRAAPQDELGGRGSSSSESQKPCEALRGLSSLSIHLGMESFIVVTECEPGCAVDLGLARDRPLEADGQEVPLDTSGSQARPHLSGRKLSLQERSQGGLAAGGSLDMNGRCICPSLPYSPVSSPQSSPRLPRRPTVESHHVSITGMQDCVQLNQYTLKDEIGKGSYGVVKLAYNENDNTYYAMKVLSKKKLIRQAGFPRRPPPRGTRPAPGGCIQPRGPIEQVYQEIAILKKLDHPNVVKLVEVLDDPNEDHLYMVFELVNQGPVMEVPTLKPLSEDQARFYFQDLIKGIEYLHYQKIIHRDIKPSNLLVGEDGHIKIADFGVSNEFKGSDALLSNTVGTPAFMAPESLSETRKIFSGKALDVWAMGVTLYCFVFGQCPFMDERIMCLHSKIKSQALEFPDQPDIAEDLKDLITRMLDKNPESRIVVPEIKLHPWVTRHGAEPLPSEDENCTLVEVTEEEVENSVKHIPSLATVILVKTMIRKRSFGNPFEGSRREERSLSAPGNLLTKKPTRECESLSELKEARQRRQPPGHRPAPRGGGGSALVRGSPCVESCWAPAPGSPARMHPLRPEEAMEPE

Row | SMILES | residual activity [%]
33 | O=C1Cc2c([nH]c3ccc([N+](=O)[O-])cc23)-c2ccccc2N1 | 79.5
34 | Oc1ccc(-c2nc(-c3ccc(F)cc3)c(-c3ccncc3)[nH]2)cc1 | 118
35 | Cc1ccc(NC(=O)c2ccc(CN3CCN(C)CC3)cc2)cc1Nc1nc(-c2cccnc2)cs1 | 101
36 | COc1ccc(-c2cnc3c(-c4ccsc4)cnn3c2)cc1 | 72.9

These compounds were tested against AURKB (human) (UniProt Q96GD4) in the same assay as above. Settings: compound 0.5 µM; ATP 10 µM.

Row | SMILES | residual activity [%]
37 | O=C1Cc2c([nH]c3ccc([N+](=O)[O-])cc23)-c2ccccc2N1 | 85.9
38 | Oc1ccc(-c2nc(-c3ccc(F)cc3)c(-c3ccncc3)[nH]2)cc1 | 104
39 | Cc1ccc(NC(=O)c2ccc(CN3CCN(C)CC3)cc2)cc1Nc1nc(-c2cccnc2)cs1 | 99.5
40 | COc1ccc(-c2cnc3c(-c4ccsc4)cnn3c2)cc1 | 50.8

Each compound was assayed against NTRK1 (human) (UniProt P04629) in the same assay as above. Settings: compound 0.5 µM; ATP 10 µM.

Row | SMILES | residual activity [%]
41 | O=C1Cc2c([nH]c3ccc([N+](=O)[O-])cc23)-c2ccccc2N1 | 107
42 | Oc1ccc(-c2nc(-c3ccc(F)cc3)c(-c3ccncc3)[nH]2)cc1 | 105
43 | Cc1ccc(NC(=O)c2ccc(CN3CCN(C)CC3)cc2)cc1Nc1nc(-c2cccnc2)cs1 | 97.1
44 | COc1ccc(-c2cnc3c(-c4ccsc4)cnn3c2)cc1 | 93.2

Each compound was assayed against JAK3 JH1 JH2 (human) (UniProt P52333) in the same assay as above. Settings: compound 0.5 µM; ATP 10 µM.

Row | SMILES | residual activity [%]
45 | O=C1Cc2c([nH]c3ccc([N+](=O)[O-])cc23)-c2ccccc2N1 | 99.7
46 | Oc1ccc(-c2nc(-c3ccc(F)cc3)c(-c3ccncc3)[nH]2)cc1 | 95.8
47 | Cc1ccc(NC(=O)c2ccc(CN3CCN(C)CC3)cc2)cc1Nc1nc(-c2cccnc2)cs1 | 93.7
48 | COc1ccc(-c2cnc3c(-c4ccsc4)cnn3c2)cc1 | 98.5

The compounds below were run against ACVR1B (human) (UniProt P36896) in the same assay as above. Settings: compound 0.5 µM; ATP 10 µM.
ACVR1B (human), sequence (P36896 whole entry, looked up): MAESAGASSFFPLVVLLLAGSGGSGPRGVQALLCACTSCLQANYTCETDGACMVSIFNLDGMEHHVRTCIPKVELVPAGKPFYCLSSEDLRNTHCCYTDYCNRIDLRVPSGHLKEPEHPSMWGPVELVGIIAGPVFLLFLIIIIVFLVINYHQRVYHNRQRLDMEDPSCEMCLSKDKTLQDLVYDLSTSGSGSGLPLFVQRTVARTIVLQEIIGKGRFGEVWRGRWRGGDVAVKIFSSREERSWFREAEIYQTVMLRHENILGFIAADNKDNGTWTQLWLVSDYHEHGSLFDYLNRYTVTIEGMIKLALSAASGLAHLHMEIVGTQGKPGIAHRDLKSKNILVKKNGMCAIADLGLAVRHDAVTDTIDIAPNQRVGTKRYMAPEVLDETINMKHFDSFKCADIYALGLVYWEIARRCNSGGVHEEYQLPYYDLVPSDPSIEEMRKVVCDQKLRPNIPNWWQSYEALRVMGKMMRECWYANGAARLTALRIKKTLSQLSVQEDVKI

Row | SMILES | residual activity [%]
49 | O=C1Cc2c([nH]c3ccc([N+](=O)[O-])cc23)-c2ccccc2N1 | 109
50 | Oc1ccc(-c2nc(-c3ccc(F)cc3)c(-c3ccncc3)[nH]2)cc1 | 136
51 | Cc1ccc(NC(=O)c2ccc(CN3CCN(C)CC3)cc2)cc1Nc1nc(-c2cccnc2)cs1 | 99.8
52 | COc1ccc(-c2cnc3c(-c4ccsc4)cnn3c2)cc1 | 100

The compounds below were run against AKT3 (human) (UniProt Q9Y243) in the same assay as above. Settings: compound 0.5 µM; ATP 10 µM.

Row | SMILES | residual activity [%]
53 | O=C1Cc2c([nH]c3ccc([N+](=O)[O-])cc23)-c2ccccc2N1 | 94.1
54 | Oc1ccc(-c2nc(-c3ccc(F)cc3)c(-c3ccncc3)[nH]2)cc1 | 98.4
55 | Cc1ccc(NC(=O)c2ccc(CN3CCN(C)CC3)cc2)cc1Nc1nc(-c2cccnc2)cs1 | 102
56 | COc1ccc(-c2cnc3c(-c4ccsc4)cnn3c2)cc1 | 95.4

These compounds were tested against RIPK2 (human) (UniProt O43353) in the same assay as above. Settings: compound 0.5 µM; ATP 10 µM.

Row | SMILES | residual activity [%]
57 | O=C1Cc2c([nH]c3ccc([N+](=O)[O-])cc23)-c2ccccc2N1 | 43.4
58 | Oc1ccc(-c2nc(-c3ccc(F)cc3)c(-c3ccncc3)[nH]2)cc1 | 46.8
59 | Cc1ccc(NC(=O)c2ccc(CN3CCN(C)CC3)cc2)cc1Nc1nc(-c2cccnc2)cs1 | 108
60 | COc1ccc(-c2cnc3c(-c4ccsc4)cnn3c2)cc1 | 56.8

The compounds below were run against PTK2B (human) (UniProt Q14289) in the same assay as above. Settings: compound 0.5 µM; ATP 10 µM.
PTK2B (human), sequence (Q14289 whole entry, looked up): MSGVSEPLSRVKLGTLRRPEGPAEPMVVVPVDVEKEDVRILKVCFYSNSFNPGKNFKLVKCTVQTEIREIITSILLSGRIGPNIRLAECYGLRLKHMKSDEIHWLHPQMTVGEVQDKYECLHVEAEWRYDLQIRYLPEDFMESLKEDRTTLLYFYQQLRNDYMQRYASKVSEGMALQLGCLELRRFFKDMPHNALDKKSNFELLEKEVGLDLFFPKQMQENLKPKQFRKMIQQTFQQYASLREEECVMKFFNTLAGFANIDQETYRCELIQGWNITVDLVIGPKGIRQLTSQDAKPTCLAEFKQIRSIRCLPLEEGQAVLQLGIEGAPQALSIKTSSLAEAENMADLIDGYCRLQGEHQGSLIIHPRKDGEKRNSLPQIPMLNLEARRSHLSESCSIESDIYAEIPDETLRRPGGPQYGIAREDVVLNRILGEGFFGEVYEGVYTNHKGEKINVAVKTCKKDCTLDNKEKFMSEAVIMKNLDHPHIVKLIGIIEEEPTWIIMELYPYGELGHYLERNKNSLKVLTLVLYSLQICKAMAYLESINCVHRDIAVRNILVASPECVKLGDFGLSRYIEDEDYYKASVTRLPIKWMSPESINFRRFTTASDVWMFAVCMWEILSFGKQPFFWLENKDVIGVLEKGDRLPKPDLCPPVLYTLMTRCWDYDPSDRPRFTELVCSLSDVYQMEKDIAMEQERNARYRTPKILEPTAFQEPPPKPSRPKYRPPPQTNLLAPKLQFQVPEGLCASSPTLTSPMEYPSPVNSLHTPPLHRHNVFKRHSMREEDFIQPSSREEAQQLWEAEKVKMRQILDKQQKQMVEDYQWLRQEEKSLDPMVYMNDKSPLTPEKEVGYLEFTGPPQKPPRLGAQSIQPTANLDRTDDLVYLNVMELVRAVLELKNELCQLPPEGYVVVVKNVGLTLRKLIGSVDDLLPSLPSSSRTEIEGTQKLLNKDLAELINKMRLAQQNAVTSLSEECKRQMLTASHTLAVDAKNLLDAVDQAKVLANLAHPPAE

Row | SMILES | residual activity [%]
61 | O=C1Cc2c([nH]c3ccc([N+](=O)[O-])cc23)-c2ccccc2N1 | 82.9
62 | Oc1ccc(-c2nc(-c3ccc(F)cc3)c(-c3ccncc3)[nH]2)cc1 | 96.2
63 | Cc1ccc(NC(=O)c2ccc(CN3CCN(C)CC3)cc2)cc1Nc1nc(-c2cccnc2)cs1 | 98.9
64 | COc1ccc(-c2cnc3c(-c4ccsc4)cnn3c2)cc1 | 81.8

What follows are compounds tested against ACVR1 (human) (UniProt Q04771) in the same assay as above. Settings: compound 0.5 µM; ATP 10 µM.
ACVR1 (human), sequence (Q04771 whole entry, looked up): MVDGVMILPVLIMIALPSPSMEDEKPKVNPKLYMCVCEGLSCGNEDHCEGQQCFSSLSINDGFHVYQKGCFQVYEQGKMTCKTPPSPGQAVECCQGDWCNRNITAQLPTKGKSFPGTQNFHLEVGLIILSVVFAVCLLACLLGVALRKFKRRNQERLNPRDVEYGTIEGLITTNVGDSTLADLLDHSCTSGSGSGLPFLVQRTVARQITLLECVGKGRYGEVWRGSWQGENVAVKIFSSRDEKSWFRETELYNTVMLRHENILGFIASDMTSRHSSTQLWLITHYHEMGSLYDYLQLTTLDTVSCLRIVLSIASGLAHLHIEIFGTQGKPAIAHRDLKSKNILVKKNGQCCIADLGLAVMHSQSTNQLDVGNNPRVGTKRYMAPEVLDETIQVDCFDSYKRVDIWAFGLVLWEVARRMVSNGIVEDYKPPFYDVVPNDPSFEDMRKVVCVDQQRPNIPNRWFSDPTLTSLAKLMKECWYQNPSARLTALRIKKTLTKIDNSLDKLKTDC

Row | SMILES | residual activity [%]
65 | O=C1Cc2c([nH]c3ccc([N+](=O)[O-])cc23)-c2ccccc2N1 | 79.7
66 | Oc1ccc(-c2nc(-c3ccc(F)cc3)c(-c3ccncc3)[nH]2)cc1 | 106
67 | Cc1ccc(NC(=O)c2ccc(CN3CCN(C)CC3)cc2)cc1Nc1nc(-c2cccnc2)cs1 | 101
68 | COc1ccc(-c2cnc3c(-c4ccsc4)cnn3c2)cc1 | 91.1

Each compound was assayed against WNK3 (human) (UniProt Q9BYP7) in the same assay as above. Settings: compound 0.5 µM; ATP 10 µM.

Row | SMILES | residual activity [%]
69 | O=C1Cc2c([nH]c3ccc([N+](=O)[O-])cc23)-c2ccccc2N1 | 99.7
70 | Oc1ccc(-c2nc(-c3ccc(F)cc3)c(-c3ccncc3)[nH]2)cc1 | 101
71 | Cc1ccc(NC(=O)c2ccc(CN3CCN(C)CC3)cc2)cc1Nc1nc(-c2cccnc2)cs1 | 99.9
72 | COc1ccc(-c2cnc3c(-c4ccsc4)cnn3c2)cc1 | 92.7

The compounds below were run against FGFR2 (human) (UniProt P21802) in the same assay as above. Settings: compound 0.5 µM; ATP 10 µM.

Row | SMILES | residual activity [%]
73 | O=C1Cc2c([nH]c3ccc([N+](=O)[O-])cc23)-c2ccccc2N1 | 96.7
74 | Oc1ccc(-c2nc(-c3ccc(F)cc3)c(-c3ccncc3)[nH]2)cc1 | 103
75 | Cc1ccc(NC(=O)c2ccc(CN3CCN(C)CC3)cc2)cc1Nc1nc(-c2cccnc2)cs1 | 100
76 | COc1ccc(-c2cnc3c(-c4ccsc4)cnn3c2)cc1 | 92.4

The compounds below were run against TEK (human) (UniProt Q02763) in the same assay as above. Settings: compound 0.5 µM; ATP 10 µM.

Row | SMILES | residual activity [%]
77 | O=C1Cc2c([nH]c3ccc([N+](=O)[O-])cc23)-c2ccccc2N1 | 92.1
78 | Oc1ccc(-c2nc(-c3ccc(F)cc3)c(-c3ccncc3)[nH]2)cc1 | 99.6
79 | Cc1ccc(NC(=O)c2ccc(CN3CCN(C)CC3)cc2)cc1Nc1nc(-c2cccnc2)cs1 | 97.2
80 | COc1ccc(-c2cnc3c(-c4ccsc4)cnn3c2)cc1 | 99.1

Each compound was assayed against CSF1R (human) (UniProt P07333) in the same assay as above. Settings: compound 0.5 µM; ATP 10 µM.
CSF1R (human), sequence (P07333 whole entry, looked up): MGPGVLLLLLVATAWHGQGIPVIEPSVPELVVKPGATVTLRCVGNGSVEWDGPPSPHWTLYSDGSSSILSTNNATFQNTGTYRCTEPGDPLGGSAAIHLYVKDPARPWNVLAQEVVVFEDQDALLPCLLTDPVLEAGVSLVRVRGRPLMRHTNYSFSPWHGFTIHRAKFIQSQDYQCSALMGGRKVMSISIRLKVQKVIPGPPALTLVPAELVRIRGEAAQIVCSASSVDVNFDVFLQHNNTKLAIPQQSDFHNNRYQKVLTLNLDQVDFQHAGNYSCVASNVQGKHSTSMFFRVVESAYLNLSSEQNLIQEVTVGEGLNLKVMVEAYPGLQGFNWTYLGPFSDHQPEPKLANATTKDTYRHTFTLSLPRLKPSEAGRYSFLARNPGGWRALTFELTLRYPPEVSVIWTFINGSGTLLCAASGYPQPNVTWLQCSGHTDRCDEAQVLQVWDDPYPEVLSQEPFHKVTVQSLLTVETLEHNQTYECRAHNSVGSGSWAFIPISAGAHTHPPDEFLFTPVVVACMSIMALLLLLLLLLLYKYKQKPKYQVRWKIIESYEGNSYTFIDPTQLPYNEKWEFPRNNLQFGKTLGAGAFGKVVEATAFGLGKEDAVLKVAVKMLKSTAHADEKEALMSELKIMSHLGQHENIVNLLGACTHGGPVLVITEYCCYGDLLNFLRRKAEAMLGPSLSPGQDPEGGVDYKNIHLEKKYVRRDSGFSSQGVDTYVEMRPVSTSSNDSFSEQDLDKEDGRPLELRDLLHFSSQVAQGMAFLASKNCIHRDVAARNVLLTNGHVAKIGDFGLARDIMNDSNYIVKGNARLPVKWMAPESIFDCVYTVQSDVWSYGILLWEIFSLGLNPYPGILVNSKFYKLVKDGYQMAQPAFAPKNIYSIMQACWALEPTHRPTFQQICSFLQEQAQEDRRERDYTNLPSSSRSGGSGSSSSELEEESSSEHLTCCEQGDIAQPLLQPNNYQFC

Row | SMILES | residual activity [%]
81 | O=C1Cc2c([nH]c3ccc([N+](=O)[O-])cc23)-c2ccccc2N1 | 51
82 | Oc1ccc(-c2nc(-c3ccc(F)cc3)c(-c3ccncc3)[nH]2)cc1 | 96.9
83 | Cc1ccc(NC(=O)c2ccc(CN3CCN(C)CC3)cc2)cc1Nc1nc(-c2cccnc2)cs1 | 8.38
84 | COc1ccc(-c2cnc3c(-c4ccsc4)cnn3c2)cc1 | 53.6
